Six cell lines from the supplement of paper PMC10307832 can be followed below.

What all share (experiment): relative viability (nuclei count vs DMSO), 5 days (fraction); higher = more cells survive
Compound in the test “Dabrafenib + Palbociclib”: CC(C)(C)c1nc(-c2cccc(NS(=O)(=O)c3c(F)cccc3F)c2F)c(-c2ccnc(N)n2)s1 [Dabrafenib] + CC(=O)c1c(C)c2cnc(Nc3ccc(N4CCNCC4)cn3)nc2n(C2CCCC2)c1=O [Palbociclib] (partner 0.5 µM)
The method in brief: (§1)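 The day after seeding in 1536-well plates, lung cancer cell lines were treated by pin tool with a single drug, or with a fixed anchor-drug dose together with five library-drug doses (not always all listed) in √10 steps. After 5 days, a combined fix-and-stain solution (final 0.05% Triton X-100, 1% formaldehyde, 1 ug/ml Hoechst) was added. Nuclei counted on 4× images gave relative viability as treated counts over vehicle counts, reported as the median of duplicate plates.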

Compound in the test “VX-702 + Olaparib”: NC(=O)c1ccc(N(C(N)=O)c2c(F)cccc2F)nc1-c1ccc(F)cc1F [VX-702] + O=C(c1cc(Cc2n[nH]c(=O)c3ccccc23)ccc1F)N1CCN(C(=O)C2CC2)CC1 [Olaparib] (partner 8 µM)
The method in brief: as §1

Compound in the test “VX-702 + Palbociclib”: NC(=O)c1ccc(N(C(N)=O)c2c(F)cccc2F)nc1-c1ccc(F)cc1F [VX-702] + CC(=O)c1c(C)c2cnc(Nc3ccc(N4CCNCC4)cn3)nc2n(C2CCCC2)c1=O [Palbociclib] (partner 0.5 µM)
The method in brief:
as §1

Compound in the test “VX-702 + Pictilisib”: NC(=O)c1ccc(N(C(N)=O)c2c(F)cccc2F)nc1-c1ccc(F)cc1F [VX-702] + CS(=O)(=O)N1CCN(Cc2cc3nc(-c4cccc5[nH]ncc45)nc(N4CCOCC4)c3s2)CC1 [Pictilisib] (partner 1 µM)
In a few lines:
as §1

In the case of LOU-NH91, the relative viability came out at 0.558 with Dabrafenib + Palbociclib (first compound 0.009487 µM); 0.589 in the test with Dabrafenib + Palbociclib (first compound 0.03 µM); 0.533 in the test with Dabrafenib + Palbociclib (first compound 0.09487 µM); 0.543 with Dabrafenib + Palbociclib (first compound 0.3 µM); 0.888 with VX-702 + Olaparib (first compound 0.02 µM); 0.891 with VX-702 + Olaparib (first compound 0.2 µM). The relative viability in the test with VX-702 + Olaparib (first compound 0.6325 µM) was determined as 0.911; in the test with VX-702 + Olaparib (first compound 2 µM), 0.881; with VX-702 + Palbociclib (first compound 0.02 µM), 0.554; with VX-702 + Palbociclib (first compound 0.2 µM), 0.532; with VX-702 + Palbociclib (first compound 0.6325 µM) it was 0.544; in the test with VX-702 + Palbociclib (first compound 2 µM), 0.536. Further, the relative viability was 0.545 in the test with VX-702 + Pictilisib (first compound 0.02 µM), 0.489 in the test with VX-702 + Pictilisib (first compound 0.2 µM), 0.491 with VX-702 + Pictilisib (first compound 0.6325 µM) and 0.53 with VX-702 + Pictilisib (first compound 2 µM).

Take IA-LM: the relative viability with VX-702 + Olaparib (first compound 0.02 µM) worked out at 0.833; with VX-702 + Olaparib (first compound 0.2 µM) it was 0.841; with VX-702 + Olaparib (first compound 0.6325 µM) it was 0.994; with VX-702 + Olaparib (first compound 2 µM), 0.937; with VX-702 + Pictilisib (first compound 0.02 µM) it was 0.298; with VX-702 + Pictilisib (first compound 0.2 µM), 0.324. The relative viability in the test with VX-702 + Pictilisib (first compound 0.6325 µM) is 0.265; with VX-702 + Pictilisib (first compound 2 µM) it was 0.352.

Consider EBC-1, for which the relative viability in the test with VX-702 + Olaparib (first compound 0.02 µM) worked out at 0.82; with VX-702 + Olaparib (first compound 0.2 µM), 0.702; with VX-702 + Olaparib (first compound 0.6325 µM), 0.653; with VX-702 + Olaparib (first compound 2 µM) it was 0.745; in the test with VX-702 + Pictilisib (first compound 0.02 µM), 0.381; in the test with VX-702 + Pictilisib (first compound 0.2 µM), 0.331. The figures for the relative viability with VX-702 + Pictilisib (first compound 0.6325 µM) and with VX-702 + Pictilisib (first compound 2 µM) were 0.307 and 0.311, respectively.

On to NCI-H727, for which the relative viability with Dabrafenib + Palbociclib (first compound 0.003 µM) is 0.598; with Dabrafenib + Palbociclib (first compound 0.009487 µM) it was 0.64; with Dabrafenib + Palbociclib (first compound 0.09487 µM), 0.719; with Dabrafenib + Palbociclib (first compound 0.3 µM) it was 0.675; with VX-702 + Olaparib (first compound 0.02 µM) it was 0.67; with VX-702 + Olaparib (first compound 0.2 µM), 0.789. For the same cell line, the relative viability in the test with VX-702 + Olaparib (first compound 0.6325 µM) is 0.72; with VX-702 + Olaparib (first compound 2 µM), 0.555; in the test with VX-702 + Palbociclib (first compound 0.02 µM), 0.635; with VX-702 + Palbociclib (first compound 0.2 µM) it was 0.641; with VX-702 + Palbociclib (first compound 0.6325 µM), 0.613; with VX-702 + Palbociclib (first compound 2 µM), 0.664. The relative viability with VX-702 + Pictilisib (first compound 0.02 µM) was 0.343; in the test with VX-702 + Pictilisib (first compound 0.2 µM), 0.302; in the test with VX-702 + Pictilisib (first compound 0.6325 µM), 0.382; with VX-702 + Pictilisib (first compound 2 µM) it was 0.356.

Take NCI-H1395: the relative viability with Dabrafenib + Palbociclib (first compound 0.009487 µM) is 0.655; with Dabrafenib + Palbociclib (first compound 0.03 µM), 0.623; with Dabrafenib + Palbociclib (first compound 0.09487 µM) it was 0.642; with Dabrafenib + Palbociclib (first compound 0.3 µM), 0.623; in the test with VX-702 + Olaparib (first compound 0.02 µM), 0.447; in the test with VX-702 + Olaparib (first compound 0.2 µM) it was 0.46. In addition, the relative viability is 0.502 with VX-702 + Olaparib (first compound 0.6325 µM); 0.448 with VX-702 + Olaparib (first compound 2 µM); 0.565 with VX-702 + Palbociclib (first compound 0.02 µM); 0.531 with VX-702 + Palbociclib (first compound 0.2 µM); 0.654 with VX-702 + Palbociclib (first compound 0.6325 µM); 0.623 with VX-702 + Palbociclib (first compound 2 µM). Further, the relative viability with VX-702 + Pictilisib (first compound 0.02 µM) was 0.572; with VX-702 + Pictilisib (first compound 0.2 µM), 0.595; in the test with VX-702 + Pictilisib (first compound 0.6325 µM), 0.607; with VX-702 + Pictilisib (first compound 2 µM), 0.662.

Turning to NCI-H2126, the relative viability with Dabrafenib + Palbociclib (first compound 0.003 µM) is 0.294; with Dabrafenib + Palbociclib (first compound 0.009487 µM), 0.333; in the test with Dabrafenib + Palbociclib (first compound 0.03 µM), 0.373; with Dabrafenib + Palbociclib (first compound 0.09487 µM), 0.359; with Dabrafenib + Palbociclib (first compound 0.3 µM), 0.382; in the test with VX-702 + Olaparib (first compound 0.02 µM), 0.901. In addition, the relative viability with VX-702 + Olaparib (first compound 0.2 µM) worked out at 0.91; in the test with VX-702 + Olaparib (first compound 0.6325 µM), 0.945; in the test with VX-702 + Olaparib (first compound 2 µM), 0.98; with VX-702 + Palbociclib (first compound 0.02 µM), 0.365; with VX-702 + Palbociclib (first compound 0.2 µM), 0.323; with VX-702 + Palbociclib (first compound 0.6325 µM), 0.341. In addition, the relative viability was 0.35 with VX-702 + Palbociclib (first compound 2 µM); 0.502 with VX-702 + Pictilisib (first compound 0.02 µM); 0.487 with VX-702 + Pictilisib (first compound 0.2 µM); 0.459 with VX-702 + Pictilisib (first compound 0.6325 µM); 0.448 in the test with VX-702 + Pictilisib (first compound 2 µM).
